The term AC50 denotes the concentration at which the activity in the assay is half-maximal. For orientation: IC50 means the concentration that gives 50% inhibition.

The source of these data is ChEMBL document CHEMBL1201862, “PubChem BioAssay data set” (2004).

The target of assay [1] is T1, Replicative DNA helicase DnaB (Mycobacterium tuberculosis, UniProt P9WMR3).
T1 sequence (P9WMR3 whole entry): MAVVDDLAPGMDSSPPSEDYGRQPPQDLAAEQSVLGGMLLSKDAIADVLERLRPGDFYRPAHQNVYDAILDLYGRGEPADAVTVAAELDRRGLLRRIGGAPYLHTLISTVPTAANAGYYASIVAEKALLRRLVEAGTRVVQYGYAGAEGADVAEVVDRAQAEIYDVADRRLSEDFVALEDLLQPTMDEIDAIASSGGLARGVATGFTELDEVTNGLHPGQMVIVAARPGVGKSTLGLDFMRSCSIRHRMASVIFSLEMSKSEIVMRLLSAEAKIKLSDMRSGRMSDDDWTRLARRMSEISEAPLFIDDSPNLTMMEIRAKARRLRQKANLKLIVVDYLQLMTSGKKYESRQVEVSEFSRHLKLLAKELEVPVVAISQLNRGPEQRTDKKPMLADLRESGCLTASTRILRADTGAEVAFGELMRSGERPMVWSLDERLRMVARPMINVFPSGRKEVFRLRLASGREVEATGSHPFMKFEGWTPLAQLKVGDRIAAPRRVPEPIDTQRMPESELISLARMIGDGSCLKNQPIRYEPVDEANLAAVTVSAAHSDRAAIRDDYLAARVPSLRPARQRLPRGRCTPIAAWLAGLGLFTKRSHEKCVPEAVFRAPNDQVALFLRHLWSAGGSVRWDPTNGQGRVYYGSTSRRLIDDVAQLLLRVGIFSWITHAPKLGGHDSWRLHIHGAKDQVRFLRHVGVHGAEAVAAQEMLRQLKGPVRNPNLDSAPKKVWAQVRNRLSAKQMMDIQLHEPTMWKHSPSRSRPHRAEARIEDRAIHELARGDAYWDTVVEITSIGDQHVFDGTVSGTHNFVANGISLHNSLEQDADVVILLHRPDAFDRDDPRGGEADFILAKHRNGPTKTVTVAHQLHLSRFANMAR
In words: DnaB intein splicing inhibitors, dose response, biochemical, cell-free fluorescence (AID 449749). Type of assay: functional.

Assay [2] concerns the target T2, Tyrosyl-DNA phosphodiesterase 2 (Homo sapiens, UniProt O95551).
T2 sequence (O95551 whole entry): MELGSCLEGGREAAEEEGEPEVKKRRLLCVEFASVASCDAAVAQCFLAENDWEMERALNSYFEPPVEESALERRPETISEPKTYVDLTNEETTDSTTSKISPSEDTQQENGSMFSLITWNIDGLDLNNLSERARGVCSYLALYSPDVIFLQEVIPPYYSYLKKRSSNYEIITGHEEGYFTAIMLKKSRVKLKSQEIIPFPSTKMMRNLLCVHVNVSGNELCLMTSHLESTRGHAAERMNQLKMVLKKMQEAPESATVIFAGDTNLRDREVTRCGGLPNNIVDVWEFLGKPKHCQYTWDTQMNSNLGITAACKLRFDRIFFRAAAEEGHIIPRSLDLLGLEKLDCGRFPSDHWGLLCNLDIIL
In words: human TDP2 enzyme inhibitors, dose response, biochemical, epi absorbance, IC50 (AID 743297).

A further assay deals with T3, Caspase-3 (Homo sapiens, UniProt P42574).
T3 sequence (P42574 whole entry): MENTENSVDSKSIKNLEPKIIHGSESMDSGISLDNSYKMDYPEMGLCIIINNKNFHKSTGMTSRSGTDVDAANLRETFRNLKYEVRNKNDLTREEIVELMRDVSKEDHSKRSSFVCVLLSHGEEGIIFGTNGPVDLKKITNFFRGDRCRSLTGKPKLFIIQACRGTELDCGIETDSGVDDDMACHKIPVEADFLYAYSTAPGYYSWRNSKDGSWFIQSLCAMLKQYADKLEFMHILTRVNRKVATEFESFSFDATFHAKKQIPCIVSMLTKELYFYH
Type of assay: functional.

The target of assay [3] is T4, Sentrin-specific protease 7 (Homo sapiens, UniProt Q9BQF6).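 Note: Luminescence-based dose-response confirmation of ultra-high-throughput screening hits, measuring inhibition of SENP7.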
T4 sequence (Q9BQF6 whole entry): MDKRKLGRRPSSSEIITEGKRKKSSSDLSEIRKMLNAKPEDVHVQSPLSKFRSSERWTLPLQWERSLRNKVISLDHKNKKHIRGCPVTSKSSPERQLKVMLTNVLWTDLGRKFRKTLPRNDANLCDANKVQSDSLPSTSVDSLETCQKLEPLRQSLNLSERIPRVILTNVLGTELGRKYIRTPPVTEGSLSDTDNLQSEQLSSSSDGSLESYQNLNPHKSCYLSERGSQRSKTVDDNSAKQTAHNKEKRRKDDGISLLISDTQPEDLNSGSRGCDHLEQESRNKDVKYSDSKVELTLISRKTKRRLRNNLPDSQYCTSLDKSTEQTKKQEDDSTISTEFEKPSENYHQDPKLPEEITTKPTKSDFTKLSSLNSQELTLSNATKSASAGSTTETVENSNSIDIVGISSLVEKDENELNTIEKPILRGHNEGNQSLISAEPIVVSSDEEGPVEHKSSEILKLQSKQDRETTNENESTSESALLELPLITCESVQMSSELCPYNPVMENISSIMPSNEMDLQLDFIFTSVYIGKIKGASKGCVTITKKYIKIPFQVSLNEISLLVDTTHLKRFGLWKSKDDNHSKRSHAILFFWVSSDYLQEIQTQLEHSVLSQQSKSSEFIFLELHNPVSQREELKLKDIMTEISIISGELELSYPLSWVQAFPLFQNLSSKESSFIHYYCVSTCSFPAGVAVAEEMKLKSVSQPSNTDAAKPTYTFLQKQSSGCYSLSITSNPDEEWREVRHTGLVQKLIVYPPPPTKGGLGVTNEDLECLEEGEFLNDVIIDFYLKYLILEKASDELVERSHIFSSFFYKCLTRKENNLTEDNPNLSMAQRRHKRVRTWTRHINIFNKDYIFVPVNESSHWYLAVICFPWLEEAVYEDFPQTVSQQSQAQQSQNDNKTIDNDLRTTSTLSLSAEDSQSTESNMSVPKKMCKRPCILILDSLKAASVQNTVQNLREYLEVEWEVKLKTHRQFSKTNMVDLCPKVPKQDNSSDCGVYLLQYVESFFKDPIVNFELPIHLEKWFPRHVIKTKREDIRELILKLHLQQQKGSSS
Type of assay: functional.

The structures appear in SMILES notation. The source made the active and inactive calls.

With `CC(=O)NC1C(=O)N(CCN2CCOCC2)c2ccc(F)cc21` (stereo not given), the AC50 in assay [1] was 12.3 µM (active). The IC50 in assay [2] is 33.4 µM (inactive).

Turning to `O=C1N=C(NS(=O)(=O)Cc2ccccc2)S/C1=C1\C(=O)Nc2ccccc21`, the IC50 at Caspase-3 was 67.2 µM (active); in assay [3], 3.76 µM (active).

On to `O=C1C=C(N2CCCCC2)c2ccccc2C1=O`, for which, in assay [2], the half-inhibitory concentration (IC50) was 5.32 µM (active).

Consider `O=C(O)C1Nc2c(O)cc(Cl)c([N+](=O)[O-])c2C2C=CCC12` (stereo not given), for which the half-maximal activity concentration (AC50) in assay [1] is 12.8 µM (active).

On to `Clc1ccc2nc(-c3ccc(Br)s3)cn2c1`, for which the results for the half-inhibitory concentration (IC50) (at Caspase-3; in assay [3]) were 11.2 µM (active) and 7.91 µM (active), respectively.

On to `Oc1ccc(N=Nc2c(O)ccc3ccccc23)cc1`, for which the IC50 on Caspase-3 was 49.7 µM (active); in assay [3] it was 8.49 µM (active).
